These results are taken from patent US10793554B2, “Solid forms of 4-(2-fluoro-4-(1-methyl-1H-benzo[d]imidazol-5-yl)benzoyl)piperazin-1-yl)(1-hydroxycyclopropyl)methanone” (FORMA Therapeutics, Inc., priority 2018, dated 2020).

Converted amounts (≈) assume the structure as drawn. “Also recorded” adds a separate entry of the source.

Common to all, as to type: physicochemical
The nature of data set [1]: Slurry stability evaluation of Mixture A (XRPD of collected solids). The note with it: 4 days. The method, then: (§1) High resolution XRPD experiments were performed with Panalytical X′Pert^3 Powder XRPD on a Si zero-background holder. The 2θposition was calibrated against Panalytical 640 Si powder standard.
The solids collected were analyzed by XRPD to confirm the form change.

Data set [2] is described as follows: Chemical stability study at elevated temperature and controlled relative humidity. The method, then: A study was conducted on a sample of Compound 1 (Form B) where samples were exposed (open) to a range of elevated temperatures (50-80° C.) and controlled relative humidity (RH) (0-80% RH).
A short description of data set [3]: Kinetic solubility of Form B in formulation (0.5% MC, 0.5% Tween 80 in water), HPLC. The note with it: 0.5% MC and 0.5% Tween 80 in water. As for the experimental part: High Pressure Liquid Chromatography (HPLC) data was obtained according to Table 5, below:
(§2) Kinetic solubility and phase stability of Form B was tested in a formulation (0.5% methyl cellulose (MC) and 0.5% Tween 80 in water). The sample was monitored by XRPD at 1, 2, 4 and 24 hours for phase stability. […] Kinetic solubility of Form B was measured in the same formulation at time points of 1, 2, 4 and 24 hour (Table 8). The supernatant was obtained by filtration and the concentration was measured by HPLC.

Data set [4] in a line: Phase stability of Form B in formulation (XRPD). The following applies: after 24 h; 0.5% MC and 0.5% Tween 80 in water. As for the experimental part:
as §1, §2

A short description of data set [5]: Dynamic Vapor Sorption (DVS) of Form B. An excerpt:
DVS was obtained using a Surface Measurement System (SMS) DVS Intrinsic. The details of the method are providing in Table 4, below:
The sample was non-hygroscopic.

The nature of data set [6]: Slurry competition of Form B and Form C at different water activity (XRPD). The note with it: for Results (solid form after slurry competition): 4 days. As for the experimental part: as §1
Form C was dissolved in three solvent mixtures (see Table 7) to get saturated solutions. Similar mass of Form B and Form C were added into the saturated solutions. The suspensions obtained were stirred at room temperature for 4 days and the solids collected were analyzed with XRPD.

As for `Cn1cnc2cc(-c3ccc(C(=O)N4CCN(C(=O)C5(O)CC5)CC4)c(F)c3)ccc21` [Mixture A, (4-(2-fluoro-4-(1-methyl-1H-benzo[d]imidazol-5-yl)benzoyl)piperazin-1-yl)(1-hydroxycyclopropyl)methanone], the “Results (solid form after slurry)” value was “Form B” in data set [1] (ACN, 50° C.); “Form B” in data set [1] (ACN, RT); “Form B” in data set [1] (EtOAc, 50° C.); “Form B” in data set [1] (EtOAc, RT). Also, in data set [1] (EtOAc or ACN, RT or 50° C.), the “form conversion of solids from the slurries (summary)” value is on record as “converted to Form B completely”.

For the compound `Cn1cnc2cc(-c3ccc(C(=O)N4CCN(C(=O)C5(O)CC5)CC4)c(F)c3)ccc21` [Compound 1, (4-(2-fluoro-4-(1-methyl-1H-benzo[d]imidazol-5-yl)benzoyl)piperazin-1-yl)(1-hydroxycyclopropyl)methanone], the estimated shelf life entry in data set [2] (25° C./60% RH, Form B sample) is listed as “greater than 5 years”. Further, the chemical stability entry in data set [2] (Form B sample exposed open to 50-80° C., 0-80% RH) is given as “good chemical stability”.

By solubility is commonly meant how much of the substance goes into solution per volume. The compound `Cn1cnc2cc(-c3ccc(C(=O)N4CCN(C(=O)C5(O)CC5)CC4)c(F)c3)ccc21` [Form B, (4-(2-fluoro-4-(1-methyl-1H-benzo[d]imidazol-5-yl)benzoyl)piperazin-1-yl)(1-hydroxycyclopropyl)methanone] came in with a solubility at 1 h in data set [3] (0.5% methyl cellulose and 0.5% Tween 80 in water, aqueous with cosolvent or surfactant or cyclodextrin, thermodynamic from solid, 1 h, RT) of 62 µg/mL (≈ 147 µM). The compound also yielded a solubility at 2 h in data set [3] (0.5% methyl cellulose and 0.5% Tween 80 in water, aqueous with cosolvent or surfactant or cyclodextrin, thermodynamic from solid, 2 h, RT) of 62 µg/mL (≈ 147 µM). For the same compound, in data set [3] (0.5% methyl cellulose and 0.5% Tween 80 in water, aqueous with cosolvent or surfactant or cyclodextrin, thermodynamic from solid, 4 h, RT), the solubility at 4 h turned out to be 63 µg/mL (≈ 149 µM). For the same compound, the concentration in solution in data set [3] (0.5% methyl cellulose and 0.5% Tween 80 in water, aqueous with cosolvent or surfactant or cyclodextrin, thermodynamic from solid, 24 h, RT) (solubility at 24 h) came to 60 µg/mL (≈ 142 µM). For the same compound, the “Purity of solubility sample” value in data set [3] (1 h) turned out to be 97.8 % area at 240 nm; in data set [3] (2 h), 97.8 % area at 240 nm; in data set [3] (4 h) it was 97.7 % area at 240 nm; in data set [3] (24 h) it was 97.7 % area at 240 nm. Also, in data set [3] (during 24 hours at RT), the “course of solubility over time” value was “remained stable”. The “degradation in the solubility sample / vehicle” value in data set [3] (up to 24 h) is recorded as “No significant degradation; also recorded: no form change or significant degradation”. The “phase transformation / form change in formulation (XRPD)” value in data set [4] is reported as “no phase transformation; also recorded: no form change”. In addition, the “form change before and after DVS (XRPD)” value in data set [5] is recorded as “no form change”. For the same compound, the “hygroscopicity (DVS)” value in data set [5] (25° C.) is reported as “non-hygroscopic”. For the same compound, the “mass change (DVS)” value in data set [5] (from 0% RH to 95% RH at 25° C.) came to 0.46 wt %.

As to `Cn1cnc2cc(-c3ccc(C(=O)N4CCN(C(=O)C5(O)CC5)CC4)c(F)c3)ccc21` [Form B and Form C, (4-(2-fluoro-4-(1-methyl-1H-benzo[d]imidazol-5-yl)benzoyl)piperazin-1-yl)(1-hydroxycyclopropyl)methanone], the “Results (solid form after slurry competition)” value is on record as “Form B” in data set [6] (H2O/MeOH (85:915 v/v), Aw 0.25, RT); “Form B” in data set [6] (H2O/MeOH (225:775 v/v), Aw 0.5, RT); “Form B” in data set [6] (H2O/MeOH (494:506 v/v), Aw 0.75, 50° C.). In addition, the “form conversion in slurry competition (summary)” value in data set [6] (H2O/MeOH mixtures, Aw 0.25-0.75, 4 days) is on record as “converted completely to Form B”.
